PubChem BioAssay AID330 (DTP/NCI, 2004)
Where “and” joins values, the source holds several entries; their conditions need not be identical. Equal values may be shown once. Inconclusive results and toxic doses are left out. Peptide text beside a SMILES is read from it. * marks the point of attachment. Boc = CC(C)(C)OC(=O)*

Tested on: P388 leukemia ip, CD2F1 mice, survival T/C
Experiment: NCI In Vivo Anticancer Drug Screen. Data for tumor model P388 Leukemia (intraperitoneal) in CD2F1 (CDF1) mice
Conditions: endpoint: median survival time, higher = longer survival
How it was run: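 Mice carrying the transplanted tumor received test compound or vehicle. Survival was recorded in each group, and the value is the treated-group measurement divided by that of the vehicle-treated control group.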

[1] = dose: 50.0 mg/kg/injection, schedule: Q01DX005 (ip), vehicle: saline with Tween-80
[2] = dose: 100.0 mg/kg/injection, schedule: Q01DX005 (ip), vehicle: saline with Tween-80
[3] = dose: 200.0 mg/kg/injection, schedule: Q01DX005 (ip), vehicle: saline with Tween-80
[4] = dose: 30.0 mg/kg/injection, schedule: Q01DX005 (ip), vehicle: Klucel (hydroxypropylcellulose) (HPC)
[5] = dose: 60.0 mg/kg/injection, schedule: Q01DX005 (ip), vehicle: Klucel (hydroxypropylcellulose) (HPC)
[6] = dose: 120.0 mg/kg/injection, schedule: Q01DX005 (ip), vehicle: Klucel (hydroxypropylcellulose) (HPC)
[7] = dose: 25.0 mg/kg/injection, schedule: Q01DX005 (ip), vehicle: saline with Tween-80
[8] = dose: 50.0 mg/kg/injection, schedule: Q01DX009 (ip), vehicle: Klucel (hydroxypropylcellulose) (HPC)
[9] = dose: 100.0 mg/kg/injection, schedule: Q01DX009 (ip), vehicle: Klucel (hydroxypropylcellulose) (HPC)
[10] = dose: 200.0 mg/kg/injection, schedule: Q01DX009 (ip), vehicle: Klucel (hydroxypropylcellulose) (HPC)
[11] = dose: 60.0 mg/kg/injection, schedule: Q01DX005 (ip), vehicle: saline with Tween-80
[12] = dose: 50.0 mg/kg/injection, schedule: Q01DX005 (ip), vehicle: Klucel (hydroxypropylcellulose) (HPC)
[13] = dose: 100.0 mg/kg/injection, schedule: Q01DX005 (ip), vehicle: Klucel (hydroxypropylcellulose) (HPC)
[14] = dose: 200.0 mg/kg/injection, schedule: Q01DX005 (ip), vehicle: Klucel (hydroxypropylcellulose) (HPC)
[15] = dose: 50.0 mg/kg/injection, schedule: Q01DX009 (ip), vehicle: saline with Tween-80
[16] = dose: 100.0 mg/kg/injection, schedule: Q01DX009 (ip), vehicle: saline with Tween-80
[17] = dose: 200.0 mg/kg/injection, schedule: Q01DX009 (ip), vehicle: saline with Tween-80
[18] = dose: 400.0 mg/kg/injection, schedule: Q01DX009 (ip), vehicle: saline with Tween-80
[19] = dose: 50.0 mg/kg/injection, schedule: Q01DX009 (ip), vehicle: saline
[20] = dose: 100.0 mg/kg/injection, schedule: Q01DX009 (ip), vehicle: saline
[21] = dose: 120.0 mg/kg/injection, schedule: Q01DX005 (ip), vehicle: saline with Tween-80

With `O=C1c2ccccc2C(=O)N1c1ccc(Cl)cc1[N+](=O)[O-]` the T/C (dose: 100.0 mg/kg/injection, schedule: Q04DX002 (ip), vehicle: saline) was 99 % of control, the T/C (dose: 200.0 mg/kg/injection, schedule: Q04DX002 (ip), vehicle: saline) was 99 % of control and the T/C (dose: 400.0 mg/kg/injection, schedule: Q04DX002 (ip), vehicle: saline) was 97 % of control.

In the case of `CN1Cc2cc(Cl)ccc2N(C)Cc2cc(Cl)ccc21`, the T/C [1] was 101 % of control, the T/C [2] was 90 % of control and the T/C [3] was 92 % of control.

With `O=C1CC(O)C(Cc2ccccc2)N1` (centres undefined) the T/C [1] was 97 % of control, the T/C [2] was 98 % of control and the T/C [3] was 97 % of control.

With `OCCN1CCOC(O)(c2cccc(C(F)(F)F)c2)C1` (centres undefined) the T/C [1] was 101 % of control, the T/C [2] was 95 % of control and the T/C [3] was 96 % of control.

In the case of `Nc1ncnc2[nH]c(=S)[nH]c12`, the T/C (dose: 1.56 mg/kg/injection, schedule: Q01DX005 (ip), vehicle: Klucel (hydroxypropylcellulose) (HPC)) was 110 % of control, the T/C (dose: 3.12 mg/kg/injection, schedule: Q01DX005 (ip), vehicle: Klucel (hydroxypropylcellulose) (HPC)) was 94 % of control and the T/C (dose: 6.25 mg/kg/injection, schedule: Q01DX005 (ip), vehicle: Klucel (hydroxypropylcellulose) (HPC)) was 99 % of control and 97 % of control.

`CC(C)(C)n1nc(C2CC2)cc1NC(=O)Nc1ccccc1` was tested, and the T/C [4] was 99 % of control, the T/C [5] was 98 % of control and the T/C [6] was 98 % of control.

With `CCCCc1c(O)c(N=NC(N)=S)c2ccccc2c1O` the T/C [1] was 95 % of control, the T/C [2] was 94 % of control and the T/C [3] was 91 % of control.

For `Oc1ccccc1C=NCCC[OH2+].Oc1ccccc1C=NCCC[OH2+].[Cu].[Cu]`, the T/C [7] was 103 % of control, the T/C [1] was 100 % of control and 102 % of control and 104 % of control and the T/C [2] was 109 % of control.

`COCC1(C)CCCC2(C)C3=C(CCC(O)C3)CCC12` (centres undefined) was tested, and the T/C (dose: 100.0 mg/kg/injection, schedule: Q04DX003 (ip), vehicle: saline) was 99 % of control, the T/C (dose: 200.0 mg/kg/injection, schedule: Q04DX003 (ip), vehicle: saline) was 99 % of control and the T/C (dose: 400.0 mg/kg/injection, schedule: Q04DX003 (ip), vehicle: saline) was 97 % of control.

For `O=C(CC1(O)C(=O)Nc2ccccc21)c1ccccn1` (centres undefined), the T/C [8] was 102 % of control, the T/C [9] was 97 % of control and the T/C [10] was 100 % of control.

`O=c1c2c(oc3ccccc13)Oc1oc3ccccc3c(=O)c1C2c1ccc2c(c1)OCO2` was tested, and the T/C (dose: 15.0 mg/kg/injection, schedule: Q01DX005 (ip), vehicle: saline with Tween-80) was 96 % of control, the T/C (dose: 30.0 mg/kg/injection, schedule: Q01DX005 (ip), vehicle: saline with Tween-80) was 92 % of control and 96 % of control and the T/C [11] was 91 % of control.

`O=C(NC(Cc1ccc(Br)cc1)C(=O)O)c1ccc(I)cc1` (centres undefined) was tested, and the T/C [12] was 98 % of control, the T/C [13] was 98 % of control and the T/C [14] was 107 % of control.

For `Clc1ccc2noc(-c3ccccc3)c2c1`, the T/C [15] was 94 % of control, the T/C [16] was 91 % of control and the T/C [17] was 98 % of control. The T/C [18] was 94 % of control.

With `CCn1c(O)c(N=NC(=S)NC)c2ccccc21` the T/C (dose: 9.37 mg/kg/injection, schedule: Q01DX009 (ip), vehicle: saline with Tween-80) was 101 % of control, the T/C (dose: 18.75 mg/kg/injection, schedule: Q01DX009 (ip), vehicle: saline with Tween-80) was 104 % of control and the T/C (dose: 37.5 mg/kg/injection, schedule: Q01DX009 (ip), vehicle: saline with Tween-80) was 93 % of control.

`Nc1ccc(Br)cc1[N+](=O)[O-]` was tested, and the T/C [15] was 101 % of control, the T/C [16] was 107 % of control and the T/C [17] was 100 % of control. The T/C [18] was 117 % of control.

With `CC(C)CCC[C@@H](C)[C@H]1CC[C@H]2[C@@H]3CCC(=O)[C@](C)(CCC(=O)O)[C@H]3CC[C@]12C` the T/C (dose: 6.25 mg/kg/injection, schedule: Q01DX009 (ip), vehicle: Klucel (hydroxypropylcellulose) (HPC)) was 96 % of control, the T/C (dose: 12.5 mg/kg/injection, schedule: Q01DX009 (ip), vehicle: Klucel (hydroxypropylcellulose) (HPC)) was 96 % of control and the T/C (dose: 25.0 mg/kg/injection, schedule: Q01DX009 (ip), vehicle: Klucel (hydroxypropylcellulose) (HPC)) was 92 % of control. The T/C [8] was 87 % of control.

In the case of `CC(C)C1NC(C(C)C)N2C(C(C)C)N12` (centres undefined), the T/C (dose: 100.0 mg/kg/injection, schedule: Q01DX001 (ip), vehicle: Klucel (hydroxypropylcellulose) (HPC)) was 100 % of control, the T/C (dose: 200.0 mg/kg/injection, schedule: Q01DX001 (ip), vehicle: Klucel (hydroxypropylcellulose) (HPC)) was 100 % of control and the T/C (dose: 400.0 mg/kg/injection, schedule: Q01DX001 (ip), vehicle: Klucel (hydroxypropylcellulose) (HPC)) was 106 % of control.

For `CCCCCCCC[N+](C)([O-])CCCCCC[N+](C)([O-])CCCCCCCC` (centres undefined), the T/C [19] was 99 % of control and the T/C [20] was 94 % of control.

With `OCCN(CCO)Cc1cccc2ccccc12` the T/C [1] was 94 % of control and the T/C [2] was 94 % of control.

For `CCOC(=O)CNC(=O)c1cc2c(cn1)[nH]c1ccccc12`, the T/C [11] was 93 % of control and the T/C [21] was 86 % of control.

In the case of `Cc1ccc(CNc2cc(C)ccn2)cc1`, the T/C (dose: 50.0 mg/kg/injection, schedule: Q01DX009 (ip), vehicle: other) was 109 % of control and the T/C (dose: 100.0 mg/kg/injection, schedule: Q01DX009 (ip), vehicle: other) was 109 % of control.

In the case of `CC(=O)N(C)c1ccc(N=Nc2ccc3ncccc3c2)cc1`, the T/C (dose: 12.5 mg/kg/injection, schedule: Q01DX005 (ip), vehicle: saline with Tween-80) was 102 % of control and the T/C [7] was 100 % of control.

With `COc1ccc(/C(C)=C\C(=O)O)cc1` the T/C [16] was 90 % of control, the T/C [17] was 100 % of control and the T/C [18] was 100 % of control.

With `CCOC(=O)C1OC(n2cnc3c(N)ncnc32)C(O)C1O` (centres undefined) the T/C [15] was 96 % of control, the T/C [19] was 103 % of control and the T/C [16] was 98 % of control. For the same compound, the T/C [20] was 100 % of control and 106 % of control, the T/C [17] was 124 % of control and the T/C (dose: 200.0 mg/kg/injection, schedule: Q01DX009 (ip), vehicle: saline) was 101 % of control and 106 % of control. The T/C [18] was 117 % of control and the T/C (dose: 400.0 mg/kg/injection, schedule: Q01DX009 (ip), vehicle: saline) was 111 % of control.

For `CCCCN1C(=O)/C(=C/c2ccc(OC)c(OC)c2OC)SC1=S`, the T/C [15] was 93 % of control, the T/C [16] was 92 % of control and the T/C [17] was 94 % of control.

With `CC(=O)OC(C)C1CC2C=C(C(N)=O)C1N(Cc1ccccc1)C2` (centres undefined) the T/C (dose: 8.75 mg/kg/injection, schedule: Q01DX005 (ip), vehicle: Klucel (hydroxypropylcellulose) (HPC)) was 97 % of control, the T/C (dose: 17.5 mg/kg/injection, schedule: Q01DX005 (ip), vehicle: Klucel (hydroxypropylcellulose) (HPC)) was 93 % of control and the T/C (dose: 35.0 mg/kg/injection, schedule: Q01DX005 (ip), vehicle: Klucel (hydroxypropylcellulose) (HPC)) was 97 % of control.

With `CCOC(=O)Cc1ccc(-c2csc(Nc3ccccc3)n2)cc1` the T/C [8] was 106 % of control, the T/C [9] was 98 % of control and the T/C [10] was 98 % of control.

In the case of `O=C(O)c1ccccc1C(=O)O.[Cu+2].[NH-]CCC[NH-]`, the T/C (dose: 12.5 mg/kg/injection, schedule: Q04DX002 (ip), vehicle: saline with Tween-80) was 115 % of control.

With `CN(Cc1ccccc1)CC(CCC1OCCO1)(CCC1OCCO1)c1ccccc1` the T/C [8] was 96 % of control and the T/C [9] was 91 % of control.

`O=C(Nc1c(Cl)cc(Cl)cc1Cl)ON=C1CCCCC1` was tested, and the T/C [11] was 96 % of control and the T/C [21] was 102 % of control.

With `CSCCC(NC(=O)OC(C)(C)C)C(=O)NC(CCSC)C(=O)NC(C)C(=O)O` (stereo not drawn) (Boc-Met-Met-Ala-OH; configuration not given here) the T/C [12] was 98 % of control, the T/C [13] was 102 % of control and the T/C [14] was 102 % of control.

`CC(=Nc1ccc(Cl)cc1N)c1c(O)cc(C)oc1=O` was tested, and the T/C [5] was 91 % of control and the T/C [6] was 96 % of control.

With `CSc1nc(Cl)c(Br)c(N2CC2)n1` the T/C [1] was 100 % of control and the T/C [2] was 107 % of control.

With `CC1(C)N=C(NN=C2CCCCC2)SP1(=O)NNc1ncccn1` (centres undefined) the T/C (dose: 15.0 mg/kg/injection, schedule: Q01DX005 (ip), vehicle: Klucel (hydroxypropylcellulose) (HPC)) was 102 % of control, the T/C [4] was 103 % of control and the T/C [5] was 98 % of control and 99 % of control.
